Measured values taken from PubChem BioAssay (NCI).
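Compound exposure: 48 hours, 5 concentrations, 96-well plates. TGI is the concentration that stops growth completely.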

Columns and labels:
Experiment in all cases: NCI anticancer screen, dose series, 48 h
A549 NSCLC = system: A549 NSCLC
MDA-MB-231 breast = system: MDA-MB-231 breast
IGROV1 ovarian = system: IGROV1 ovarian
NCI/ADR-RES ovarian = system: NCI/ADR-RES ovarian
SF-268 CNS = system: SF-268 CNS
SF-295 CNS = system: SF-295 CNS
HOP-92 NSCLC = system: HOP-92 NSCLC
K-562 leukemia = system: K-562 leukemia
MDA-MB-435 = system: MDA-MB-435
PC-3 prostate = system: PC-3 prostate
SK-OV-3 ovarian = system: SK-OV-3 ovarian
UACC-62 melanoma = system: UACC-62 melanoma
786-0 renal = system: 786-0 renal
NCI-H23 lung = system: NCI-H23 lung
HL-60(TB) leukemia = system: HL-60(TB) leukemia
DU-145 prostate = system: DU-145 prostate
U251 CNS = system: U251 CNS
NCI-H522 lung = system: NCI-H522 lung
HCT-116 colon = system: HCT-116 colon
CCRF-CEM leukemia = system: CCRF-CEM leukemia
OVCAR-5 ovarian = system: OVCAR-5 ovarian
CAKI-1 renal = system: CAKI-1 renal
SN12C renal = system: SN12C renal
HT29 colon = system: HT29 colon
A498 renal = system: A498 renal
SK-MEL-28 melanoma = system: SK-MEL-28 melanoma
MOLT-4 leukemia = system: MOLT-4 leukemia
HCC-2998 colon = system: HCC-2998 colon
OVCAR-8 ovarian = system: OVCAR-8 ovarian
KM12 colon = system: KM12 colon
MALME-3M melanoma = system: MALME-3M melanoma
OVCAR-4 ovarian = system: OVCAR-4 ovarian
T-47D breast = system: T-47D breast
OVCAR-3 ovarian = system: OVCAR-3 ovarian
SK-MEL-2 melanoma = system: SK-MEL-2 melanoma
RPMI-8226 leukemia = system: RPMI-8226 leukemia
SK-MEL-5 melanoma = system: SK-MEL-5 melanoma
ACHN renal = system: ACHN renal
RXF 393 renal = system: RXF 393 renal
HOP-62 NSCLC = system: HOP-62 NSCLC
M14 melanoma = system: M14 melanoma
SF-539 CNS = system: SF-539 CNS
HS 578T breast = system: HS 578T breast
MDA-N = system: MDA-N
SNB-19 CNS = system: SNB-19 CNS
EKVX NSCLC = system: EKVX NSCLC
NCI-H460 lung = system: NCI-H460 lung
SR leukemia = system: SR leukemia
UO-31 renal = system: UO-31 renal
HCT-15 colon = system: HCT-15 colon
BT-549 breast = system: BT-549 breast
COLO 205 colon = system: COLO 205 colon
MCF7 breast = system: MCF7 breast
NCI-H226 lung = system: NCI-H226 lung
TK-10 renal = system: TK-10 renal
UACC-257 melanoma = system: UACC-257 melanoma

## CC1=NN(c2nc(N)nc(-c3cc4ccccc4oc3=N)n2)C(C)(C)C1
A549 NSCLC
  TGI: 41.3 µM
MDA-MB-231 breast
  TGI: 43.4 µM
IGROV1 ovarian
  TGI: 32.1 µM
NCI/ADR-RES ovarian
  TGI: 43.9 µM
SF-268 CNS
  TGI: 36.7 µM
SF-295 CNS
  TGI: 32.6 µM
HOP-92 NSCLC
  TGI: 42.7 µM
K-562 leukemia
  TGI: 53.1 µM
MDA-MB-435
  TGI: 41.8 µM
PC-3 prostate
  TGI: 33 µM
SK-OV-3 ovarian
  TGI: 34.7 µM
UACC-62 melanoma
  TGI: 34.1 µM
786-0 renal
  TGI: 29.8 µM
NCI-H23 lung
  TGI: 29.7 µM
HL-60(TB) leukemia
  TGI: 46.2 µM
DU-145 prostate
  TGI: 53.7 µM
U251 CNS
  TGI: 76.8 µM
NCI-H522 lung
  TGI: 39.9 µM
HCT-116 colon
  TGI: 35.5 µM
CCRF-CEM leukemia
  TGI: 48.6 µM
OVCAR-5 ovarian
  TGI: 60.1 µM
CAKI-1 renal
  TGI: 31.1 µM
SN12C renal
  TGI: 43 µM
HT29 colon
  TGI: 40.2 µM
A498 renal
  TGI: 66.9 µM
SK-MEL-28 melanoma
  TGI: 30.5 µM
MOLT-4 leukemia
  TGI: 34.6 µM
HCC-2998 colon
  TGI: 28.8 µM
OVCAR-8 ovarian
  TGI: 53 µM
KM12 colon
  TGI: 34.2 µM
MALME-3M melanoma
  TGI: 32.2 µM
OVCAR-4 ovarian
  TGI: 31.2 µM
T-47D breast
  TGI: 34.3 µM
OVCAR-3 ovarian
  TGI: 31.6 µM
SK-MEL-2 melanoma
  TGI: 41.8 µM
RPMI-8226 leukemia
  TGI: 42.6 µM
SK-MEL-5 melanoma
  TGI: 30.6 µM
ACHN renal
  TGI: 34.8 µM
RXF 393 renal
  TGI: 43.5 µM
HOP-62 NSCLC
  TGI: 37.2 µM
M14 melanoma
  TGI: 36 µM
SF-539 CNS
  TGI: 34.1 µM
HS 578T breast
  TGI: 48.1 µM
MDA-N
  TGI: 31.2 µM
SNB-19 CNS
  TGI: > 100 µM
EKVX NSCLC
  TGI: 32.8 µM
NCI-H460 lung
  TGI: 34.2 µM
SR leukemia
  TGI: 46.8 µM
UO-31 renal
  TGI: 37.4 µM
HCT-15 colon
  TGI: 35.9 µM
BT-549 breast
  TGI: 47 µM
COLO 205 colon
  TGI: 31.1 µM
MCF7 breast
  TGI: > 100 µM
NCI-H226 lung
  TGI: 30.4 µM
TK-10 renal
  TGI: 38.4 µM
UACC-257 melanoma
  TGI: 31.4 µM
